Data on eight compounds can be found in patent publication US12213984B2, “Immunoregulatory agent” (KYUSHU UNIVERSITY, NATIONAL UNIVERSITY CORPORATION, priority 2015, dated 2025).

For one test, the target named is T1, DOCK2DHR-2 (lobe B and lobe C of the DHR-2 domain of DOCK2) (Homo sapiens, UniProt Q92608).
T1 construct: polypeptide fragments corresponding to a DHR-2 domain including the lobe B and the lobe C of DOCK2; Histidine-SUMO (N); made in house; host or cells: E. coli Arctic express DE3 (pET28a); Rac in E. coli BL21 DE3 (pGEX-6P-1)
T1 sequence (Q92608 1196-1622): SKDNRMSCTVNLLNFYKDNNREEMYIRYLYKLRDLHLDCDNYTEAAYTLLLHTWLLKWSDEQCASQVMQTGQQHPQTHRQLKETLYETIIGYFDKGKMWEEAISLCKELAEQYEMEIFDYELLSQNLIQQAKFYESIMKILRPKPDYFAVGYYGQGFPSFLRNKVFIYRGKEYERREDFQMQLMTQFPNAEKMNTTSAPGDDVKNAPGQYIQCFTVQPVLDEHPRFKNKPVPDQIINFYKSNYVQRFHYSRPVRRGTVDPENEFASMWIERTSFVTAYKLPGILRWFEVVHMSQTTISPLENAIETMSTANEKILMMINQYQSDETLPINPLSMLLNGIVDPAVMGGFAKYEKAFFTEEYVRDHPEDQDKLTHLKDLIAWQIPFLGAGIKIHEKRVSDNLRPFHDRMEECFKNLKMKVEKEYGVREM
Kind of test: in-vitro GEF assay, Rac activation by DOCK2 DHR-2 domain with various steroid compounds (Experimental Example 2). Conditions: Experimental Example 2, Table 1; read-out: IC50 against the Rac activation by DOCK2DHR-2. Type of test: biochemical. The method, then: An examination was performed using various steroid compounds to test their effects on the Rac activation induced by proteins composed of the lobe B and the lobe C of the DHR-2 domain of DOCK2.
As the steroid compounds, cholesterol 3-sulfate (hereinafter, referred to as “C3S” in some cases), cholesterol, cholesterol 3-acetate (hereinafter, referred to as “C3A” in some cases), pregnenolone 3-sulfate (hereinafter, referred to as “PREG3S” in some cases), dehydroepiandrosterone (hereinafter, referred to as “DHEA” in some cases), dehydroepiandrosterone 3-sulfate (hereinafter, referred to as “DHEA3S” in some cases), estrone 3-sulfate (hereinafter, referred to as “Estrone3S” in some cases), estriol 3-sulfate (hereinafter, referred to as “Estriol3S” in some cases), and estradiol 3-sulfate (hereinafter, referred to as “Estradiol3S” in some cases) were used.
More specifically, a DOCK2-DHR-2 domain protein prepared by the same method as described above was incubated for 20 minutes at room temperature in the presence of various steroid compounds at a predetermined concentration dissolved in DMSO or in the presence of DMSO alone (control) under the shielded condition from light, thereby preparing a pretreated substance of GEF. The concentration of DMSO was adjusted such that it became 3% (1% in the final reaction solution) in all samples. Then, by in-vitro GEF assay in which Rac and Bodipy-FL-GTP prepared by the same method as described above were used, Rac activation by the DHR-2 domain was measured.
In the case of `CC(=O)O[C@H]1CC[C@@]2(C)C(=CC[C@H]3[C@@H]4CC[C@H]([C@H](C)CCCC(C)C)[C@@]4(C)CC[C@@H]32)C1` [C3A, cholesterol 3-acetate], the IC50 was > 200 µM.

On to `CC(C)CCC[C@@H](C)[C@H]1CC[C@H]2[C@@H]3CC=C4C[C@@H](O)CC[C@]4(C)[C@H]3CC[C@]12C` [Cholesterol, cholesterol], for which the IC50 was > 200 µM.

Consider `C[C@]12CC[C@H](OS(=O)(=O)O)CC1=CC[C@@H]1[C@@H]2CC[C@]2(C)C(=O)CC[C@@H]12` [DHEA3S, dehydroepiandrosterone 3-sulfate], for which the IC50 is > 200 µM.

Regarding `C[C@]12CC[C@@H]3c4ccc(OS(=O)(=O)O)cc4CC[C@H]3[C@@H]1CC[C@@H]2O` [Estradiol3S, estradiol 3-sulfate], the IC50 was > 200 µM.

Regarding `C[C@]12CC[C@@H]3c4ccc(OS(=O)(=O)O)cc4CC[C@H]3[C@@H]1C[C@@H](O)[C@@H]2O` [Estriol3S, estriol 3-sulfate], the IC50 was > 200 µM.

For `C[C@]12CC[C@@H]3c4ccc(OS(=O)(=O)O)cc4CC[C@H]3[C@@H]1CCC2=O` [Estrone3S, estrone 3-sulfate], the IC50 was > 200 µM.

For the compound `CC(=O)C1CCC2C3CC=C4CC(OS(=O)(=O)O)CCC4(C)C3CCC12C` (centres unmarked) [PREG3S, pregnenolone 3-sulfate], the half-maximal inhibitory concentration (IC50) is 76.6 µM.

Still in this test, the particulars now being: IC50 against the Rac activation by DOCK2DHR-2, Experimental Example 2, Table 1.
Take `C[C@]12CC[C@H](O)CC1=CC[C@@H]1[C@@H]2CC[C@]2(C)C(=O)CC[C@@H]12` [DHEA, dehydroepiandrosterone]: the IC50 is > 200 µM.

Broadly, the IC50 is the concentration at which inhibition is half-maximal.
